This is an account of results in ChEMBL document CHEMBL5620358, “Proteolysis-targeting chimeras in biotherapeutics: Current trends and future applications” (Eur J Med Chem, 2023).

Assay [1] is described as follows: Antiproliferative activity against human TNBC cells assessed as inhibition of cell growth. Type of assay: functional, Breast carcinoma cell.
Assay [2] deals with T1, Protein cereblon/Cyclin-dependent kinase 9 (Homo sapiens) (UniProt P50750+Q96SW2). In words: PROTAC activity at E3 ubiquitin ligase/CDK9 in human HCT-116 cells assessed as induction of CDK9 degradation at 20 uM measured after 6 hrs by western blot analysis. Type of assay: cell-based.
The target of assay [3] is Protein cereblon/Bromodomain-containing protein 9 (Homo sapiens, UniProt Q9H8M2+Q96SW2). The assay can be described thus: PROTAC activity at CRBN/BRD9 (unknown origin) assessed as induction of BRD9 degradation. Type of assay: protein assay.
Assay [4] deals with T1, Protein cereblon/Cyclin-dependent kinase 9 (Homo sapiens). In words: PROTAC activity at E3 ubiquitin ligase/CDK9 in human MOLT-4 cells assessed as induction of CDK9 degradation at 250 nM by immunoblot analysis. It is filed as cell-based.
For assay [5], the target named is Protein cereblon/Macrophage migration inhibitory factor (Homo sapiens, UniProt P14174+Q96SW2). The assay can be described thus: PROTAC activity at E3 ubiquitin ligase/MIF in human A549 cells assessed as induction of MIF degradation. It is filed as cell-based.
Assay [6] concerns the target von Hippel-Lindau disease tumor suppressor/Haloalkane dehalogenase (Rhodococcus sp) (UniProt P40337+P0A3G3). The assay can be described thus: PROTAC activity at VHL/HaloTag7-GFP fusion protein (unknown origin) assessed as induction of fusion protein degradation relative to control.
The target of assay [7] is von Hippel-Lindau disease tumor suppressor/Haloalkane dehalogenase (Rhodococcus sp, UniProt P40337+P0A3G3). In words: PROTAC activity at VHL/HaloTag7-GFP fusion protein (unknown origin) assessed as induction of fusion protein degradation.
Assay [8] relates to MCF7. The assay can be described thus: Cytotoxicity against human MCF7 cells assessed as inhibition of cell proliferation measured after 72 hrs by MTT assay. It is filed as functional, cell-based. The settings on record: MCF7, 72 h.
Assay [9] is described as follows: Induction of AR degradation in castrated mouse model xenografted with human VCaP cells at 1 mg/kg. It is filed as functional.

On to `Nc1c(C(=O)Nc2ccc(F)cc2)sc2nc(-c3cccs3)cc(C(F)(F)F)c12`, for which the “inhibition (INH)” value in assay [1] was 47.8%. As to `O=C1CCC(N2C(=O)c3cccc(OCCCCCOc4ccc(CC(=O)Nc5cc(C6CCC6)[nH]n5)cc4)c3C2=O)C(=O)N1` (centres undefined), in assay [2], the Activity came to 65%. For the compound `COc1cc(-c2cn(C)c(=O)c(C)c2C)cc(OC)c1CN1CC[C@H](N2CCN(c3ccc(N[C@H]4CCC(=O)NC4=O)cc3F)CC2)C(F)(F)C1` [SENDEGOBRESIB], in [3], the DC50 was 0.0027 µM. With `CC(C)(C)c1cnc(CSc2cnc(NC(=O)C3CCN(CC(=O)NCCOCCOCCOCCNc4cccc5c4C(=O)N(C4CCC(=O)NC4=O)C5=O)CC3)s2)o1` (centres undefined), in [4], the Activity turned out to be 99%. `O=C1CCC(N2C(=O)c3cccc(NCCCCCCCC(=O)Nc4ccc(N5Cc6ccc(O)cc6OC5=O)cc4)c3C2=O)C(=O)N1` (centres undefined): in [5], the DC50 was found to be 0.1 µM. As to `Cc1ncsc1-c1ccc(CNC(=O)[C@@H]2C[C@@H](O)CN2C(=O)[C@H](C(C)C)N2Cc3ccccc3C2=O)c(OCCOCCOCCOCCCCCCCl)c1`, in assay [6], the Activity turned out to be 90%. In [7], the DC50 was 0.019 µM.

For the compound `Nc1cccc2c1C(=O)N(C1CCC(=O)NC1=O)C2=O` (centres undefined) [POMALIDOMIDE], in assay [8], the IC50 came out at 17 µM. In assay [9], `N#Cc1ccc(O[C@H]2CC[C@H](NC(=O)c3ccc(N4CCC(CN5CCN(c6cc7c(cc6F)C(=O)N(C6CCC(=O)NC6=O)C7=O)CC5)CC4)nn3)CC2)cc1Cl` (some centres undefined) [BAVDEGALUTAMIDE] showed an Activity of 90%.
